In publication PMC5103216, “Novel Agonist Bioisosteres and Common Structure-Activity Relationships for The Orphan G Protein-Coupled Receptor GPR139” (Scientific Reports, 2016):
“And” between values parts separate entries of the source, which are not always exact repeats. Equal values may be shown once. Read-outs that look alike come from different tables or passages of the source.

What was measured:
[1] = biological target: T1, GPR139 (Homo sapiens, UniProt Q6DWJ6); experiment: IP-One HTRF assay measuring Gq activation in CHO-139; type: cell-based; conditions: for EC50: CHO-139, 20 mM LiCl; for agonist type: IP-One assay, compared to compound 1a
T1 sequence (Q6DWJ6 1-353): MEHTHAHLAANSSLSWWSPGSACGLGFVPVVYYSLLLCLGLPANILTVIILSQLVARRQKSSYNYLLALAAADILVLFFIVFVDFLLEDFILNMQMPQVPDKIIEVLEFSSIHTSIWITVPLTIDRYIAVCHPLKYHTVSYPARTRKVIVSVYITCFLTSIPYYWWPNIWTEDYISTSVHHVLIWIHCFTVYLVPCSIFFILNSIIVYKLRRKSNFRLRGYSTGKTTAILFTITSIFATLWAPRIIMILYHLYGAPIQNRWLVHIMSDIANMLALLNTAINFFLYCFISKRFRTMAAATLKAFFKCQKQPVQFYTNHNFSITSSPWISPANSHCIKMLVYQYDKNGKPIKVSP
Protocol: (§1) Figure 3 IP-One HTRF® assay measuring Gq activation. Concentration-response curves of 1a, 7c (racemic), L-Trp, L-Phe, DL43, DL126, DL24, DL22, DL132 and DL130 on (A) CHO-139 and (B) CHO-M1 in the IP-One assay (final conc of LiCl = 20 mM). The dotted line represent the [IP1] response from (A) 10 μM 1a and (B) 1 μM carbachol, which is an agonist for the muscarinic acethylcholine receptor M1 that activates the Gq coupled pathway. The graphs are means ± SEM based on three independent experiments performed in triplicates.
(§2) The IP-One assay was performed as described in the work by Thomsen et al.[28], with few modifications. Breifly, CHO-139 and CHO-M1 were detached and re-suspended to a concentration of 10 million cells/mL. 5 μL 2x concentrated compound (+40 mM LiCl) and 5 μL cell suspension (50,000 cells/well) was mixed. The plate was sealed and incubated at 37 °C for 1 hour. Next, 10 μL detection reagents (lysis buffer containing 2.5% Eu^3+-anti-IP1 antibody and 2.5% IP1-d2) was added and the plate was incubated for 1 hour at room temperature. The plate was read on an Envision (PerkinElmer, Waltham, MA, USA). The time resolved-fluorescence resonance energy transfer (TR-FRET) 665 nm/615 nm ratio, which is inversely proportional to the inositol monophosphate (IP1) accumulation, was used to determine the concentration of the IP1 response.

[2] = biological target: T2, M1 receptor (Homo sapiens, UniProt P11229); experiment: IP-One HTRF assay in CHO-M1 (control); type: cell-based
T2 construct: host or cells: CHO-k1
T2 sequence (P11229 1-460): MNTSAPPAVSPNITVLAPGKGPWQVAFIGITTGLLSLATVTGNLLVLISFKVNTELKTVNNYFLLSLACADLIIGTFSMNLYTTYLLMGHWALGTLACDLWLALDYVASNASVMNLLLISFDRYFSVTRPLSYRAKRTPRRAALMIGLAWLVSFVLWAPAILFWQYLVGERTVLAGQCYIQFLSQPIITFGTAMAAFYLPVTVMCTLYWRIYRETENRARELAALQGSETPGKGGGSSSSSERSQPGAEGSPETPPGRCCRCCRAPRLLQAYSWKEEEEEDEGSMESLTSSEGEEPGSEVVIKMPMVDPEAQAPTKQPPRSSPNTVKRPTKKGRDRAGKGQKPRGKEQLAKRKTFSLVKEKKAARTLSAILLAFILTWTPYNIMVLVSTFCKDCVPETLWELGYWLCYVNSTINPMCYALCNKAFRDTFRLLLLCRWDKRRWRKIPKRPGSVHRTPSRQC
Protocol: as §1, §2

[3] = biological target: T1, GPR139; experiment: cAMP dynamic 2 assay measuring Gs activation in CHO-139; type: cell-based
Protocol: (§3) The cAMP assay was performed as described in the work by Thomsen et al.[28] with few modifications. Breifly, CHO-139 and CHO-M1 was detached and resuspended to a concentration of 1 million cells/mL. 5 μL 2x concentrated compound (for Gs: +100 μM IBMX and for Gi: +100 μM IBMX +10 μM forskolin (Fsk)) and 5 μL cell suspension (5,000 cells/well) was mixed. The plate was sealed and incubated at room temperature for 30 min. Next, 10 μL detection reagents (lysis buffer containing 2.5% Eu^3+-anti-cAMP antibody and 2.5% cAMP-d2) was added and the plate was incubated for 1 hour at room temperature. The plate was read on an Envision (PerkinElmer, Waltham, MA, USA). The TR-FRET 665 nm/615 nm ratio, which is inversely proportional with the cAMP production, was used to determination the concentration of the cAMP response. […]
(§4) Supplementary Figure 1. cAMP dynamic 2 assay measuring Gs activation. 5,000 cells/well of CHO-139 (pink bars) or CHO-M1 (blue bars) cells are
(§5) incubated with the indicated compounds for 30 min at room temperature in the presence of 50 µM IBMX. 5 µM and 10 µM forskolin (Fsk) serves as positive
(§6) controls. The responses are one representative out of at two independent experiments performed in triplicates. Data points are means ± SD. […]
(§7) Data points are means ± SD.

[4] = biological target: T2, M1 receptor; experiment: cAMP dynamic 2 assay measuring Gs activation in CHO-M1 (control); type: cell-based
Protocol: as §3, §4, §5, §6, §7

[5] = biological target: T1, GPR139; experiment: cAMP dynamic 2 assay measuring Gi activation (forskolin) in CHO-139; type: cell-based; conditions: for Inhibition of the cAMP response induced by 5 μM forskolin (Gi), in words: CHO-139
Protocol: as §3
(§8) Supplementary Figure 2. cAMP dynamic 2 assay measuring Gi activation. 5,000 cells/well of CHO-139 (pink bars) or CHO-M1 (blue bars) cells are
(§9) incubated with the indicated compounds for 30 min at room temperature in the presence of 50 µM IBMX and 5 uM Fsk (expect “buffer (-Fsk) where only 50
(§10) µM IBMX is present). The straight line indicate the level of cAMP upon activation with 5 uM Fsk, and the grey area ±10% of the response. The responses are
(§11) one representative out of at two independent experiments performed in triplicates. Data points are means ± SD.

[6] = biological target: T1, GPR139; parameters: method as in ref 13, 14 (Dvorak et al.); conditions: 14 (Dvorak et al.), cited from earlier work; for Emax: relative to L-Trp; for EC50: mean of at least three experiments
[7] = in vivo; cited from earlier work
[8] = not told; cited from earlier work
[9] = biological target: T1, GPR139; parameters: method as in ref 11 (Shi et al.); conditions: ref 11 (Shi et al.), cited from earlier work; for EC50: GPR139 agonist potency
[10] = biological target: T1, GPR139; experiment: GPR139 agonist potency, data from Shi et al. (Lundbeck series); type: cell-based
[11] = in vivo; cited from earlier work; remark: listed apart in the source
[12] = biological target: T1, GPR139; experiment: GPR139 agonist potency, data from Dvorak et al. (Janssen R&D series); type: cell-based
[13] = biological target: T1, GPR139; parameters: method as in PMID 24826842; conditions: GPR139 activation; cited from earlier work
[14] = biological target: T1, GPR139; parameters: method as in ref 6, 13 (Liu et al.); conditions: [35S]GTPγS binding, membranes from COS7 cells; 13 (Liu et al.); cited from earlier work
[15] = biological target: T1, GPR139; parameters: method as in ref 6, 13 (Liu et al.); conditions: concentration-dependent calcium response in HEK293 cells; 13 (Liu et al.); cited from earlier work
[16] = biological target: T1, GPR139; parameters: method as in ref 6, 13 (Liu et al.); conditions: calcium mobilization in HEK293; 13 (Liu et al.); cited from earlier work
[17] = biological target: T2, M1 receptor; experiment: cAMP dynamic 2 assay measuring Gi activation (forskolin) in CHO-M1 (control); type: cell-based; conditions: CHO-M1, high concentrations; unspecific response
Protocol: as §3, §8, §9, §10, §11

[18] = biological target: T1, GPR139; parameters: method as in ref 15 (Hitchcock et al.); conditions: ref 15 (Hitchcock et al.); cited from earlier work

For `CC(NC(=O)CNC(=O)c1cccc(Cl)c1)c1ccccc1` (racemic) [7c (racemic)], the EC50 ([1]; IP-One HTRF assay) was 0.00049 mM, the Emax ([1]; IP-One HTRF assay, relative to compound 1a, 7c at 10 μM and L-Trp at 20 mM (highest concentration tested)) was 120^(*) % and the agonist type [1] was “super-agonists”.

With `C[C@H](NC(=O)CNC(=O)c1cccc(Cl)c1)c1ccccc1` (racemic) [7c] the “IP1 response in CHO-M1 cells” value [2] was “no response is seen in CHO-M1 cells”, the “Gs response (cAMP)” value [3] was “None of the tested compounds induced Gs response” and the “Gs response (cAMP)” value [4] was “None of the tested compounds induced Gs response”. For the same compound, the “Inhibition of the cAMP response induced by 5 μM forskolin (Gi), in words” value (from here on “Inhibition of the cAMP response induced”) [5] was “none of the tested compounds were able to inhibit the cAMP response”, the Emax [6] was 138% and the “brain to plasma ratio” value [7] was 1.2. The efflux potential [8] was “no efflux potential”.

For `COc1cc(OC)cc(C(=O)NNC(=O)Nc2cccc3ccccc23)c1` [1a], the EC50 ([1]; IP-One HTRF assay) was 0.00105 mM, the “IP1 response in CHO-M1 cells” value [2] was “no response is seen in CHO-M1 cells” and the “Gs response (cAMP)” value [3] was “None of the tested compounds induced Gs response”. The “Gs response (cAMP)” value [4] was “None of the tested compounds induced Gs response”, the “Inhibition of the cAMP response induced” value [5] was “none of the tested compounds were able to inhibit the cAMP response” and the Emax [9] was 100%.

For `COc1ccccc1C(=O)NNC(=O)Nc1cccc2ccccc12` [1c], the “fold reduction of potency vs. 1a” value [10] is given as ~ 16 fold, the EC50 [9] is given as 620 nM and the Emax [9] is given as 79%.

In the case of `COc1cccc(C(=O)NNC(=O)Nc2cccc3ccccc23)c1` [1f], the “fold reduction of potency vs. 1a” value [10] is listed as ~ 26 fold, the EC50 [9] is listed as 1000 nM and the Emax [9] is listed as 100%.

For `COc1cc(OC)cc(C(=O)NNC(=O)Cc2cccc3ccccc23)c1` [1s], the “fold reduction of potency vs. 1a” value [10] is given as 2 fold and ~ 2.4 fold, the EC50 [9] is given as 88 nM and the Emax [9] is given as 95%. For the same compound, the brain exposure [11] was “failed to increase brain exposure due to low plasma levels”.

In the case of `C[C@H](NC(=O)CNC(=O)c1ccccc1Cl)c1ccccc1` [7b], the “fold reduction of potency vs. 7c” value [12] is given as ~ 3 fold and the Emax [6] is given as 120%.

For `C[C@H](NC(=O)CNC(=O)c1cc(Cl)cc(Cl)c1)c1ccccc1` [7n], the Emax [6] is listed as 119%.

In the case of `C[C@H](NC(=O)CNC(=O)c1cc(F)cc(Cl)c1)c1ccccc1` [7o], the Emax [6] is given as 124%.

In the case of `C[C@H](NC(=O)CNC(=O)c1cc(Cl)cc(Br)c1)c1ccccc1` [7p], the Emax [6] is listed as 113%.

For `COc1cc(OC)cc(C(=O)NCC(=O)N[C@@H](C)c2ccccc2)c1` [7q], the Emax [6] is listed as 149%.

For `N[C@@H](Cc1ccccc1)C(=O)O` [L-Phe, L-Phenylalanine], the EC50 ([1]; IP-One HTRF assay) was 4.45 mM, the “IP1 response in CHO-M1 cells” value [2] was “no response is seen in CHO-M1 cells” and the “Gs response (cAMP)” value [3] was “None of the tested compounds induced Gs response”. The “Gs response (cAMP)” value [4] was “None of the tested compounds induced Gs response”, the “Inhibition of the cAMP response induced” value [5] was “none of the tested compounds were able to inhibit the cAMP response” and the EC50 [13] was 320 µM. The EC50 [14] was 31 µM, the EC50 [15] was 60 µM and the EC50 [16] was 411 µM.

For `N[C@@H](Cc1c[nH]c2ccccc12)C(=O)O` [L-Trp, L-Tryptophan], the EC50 ([1]; IP-One HTRF assay) was roughly 8.5 mM, the agonist type [1] was “super-agonists” and the “IP1 response in CHO-M1 cells” value [2] was “no response is seen in CHO-M1 cells”. The “Gs response (cAMP)” value [3] was “None of the tested compounds induced Gs response”, the “Gs response (cAMP)” value [4] was “None of the tested compounds induced Gs response” and the “Inhibition of the 5 μM forskolin induced cAMP response” value ([5]; CHO-139, high concentrations) was “more than 10%”. The “Inhibition of the 5 μM forskolin induced cAMP response” value [17] was “more than 10%”, the EC50 [13] was 220 µM and the EC50 [14] was 26 µM. The EC50 [15] was 49 µM and the EC50 [16] was 287 µM.

For `C[C@H](NC(=O)CNCc1cccc(Cl)c1)c1ccccc1` [compound 8], the EC50 [6] is listed as greater than 10 µM.

In the case of `C[C@H](NCCNC(=O)c1cccc(Cl)c1)c1ccccc1` [compound 9], the EC50 [6] is given as greater than 10 µM.

In the case of `COc1cccc(C(=O)N[C@@H](C)C(=O)N[C@@H](C)c2ccccc2)c1` [compound 10], the Emax [6] is listed as 143%.

In the case of `COc1cccc(C(=O)N[C@H](C)C(=O)N[C@@H](C)c2ccccc2)c1` [compound 11], the Emax [6] is listed as 88%.

For `COc1cccc(C(=O)N[C@@H](CO)C(=O)N[C@@H](C)c2ccccc2)c1` [compound 12], the Emax [6] is listed as 107%.

For `COc1ccc(C(C)NC(=O)Cn2nnc3cc(C)ccc3c2=O)cc1` (centres unmarked) [compound 35], the EC50 [18] is listed as 42 nM.

For `COc1ccc(C(C)NC(=O)Cn2nnc3cc(OC)ccc3c2=O)cc1` (centres unmarked) [compound 37], the EC50 [18] is listed as 37 nM.
